Values of other authors as cited in PubChem BioAssay AID493017.
Blank lines part the entries; values can stand above or below the compound they belong to.

What was measured:
[1] = biological target: Estrogen receptor (Homo sapiens) (UniProt P03372); test: PubChem AID 493017; settings: WOMBAT literature affinities, multiple human targets, ERalpha, gene ESR1, NCBI gene 2099; for Ki: binding affinity Ki; for Kd: binding affinity Kd
[2] = system: WOMBAT literature affinities, multiple human targets; test: PubChem AID 493017
[3] = HIV-1 RT, gene HIV-1 reverse transcriptase

Estrogen receptor (Homo sapiens), sequence (P03372 whole entry, looked up): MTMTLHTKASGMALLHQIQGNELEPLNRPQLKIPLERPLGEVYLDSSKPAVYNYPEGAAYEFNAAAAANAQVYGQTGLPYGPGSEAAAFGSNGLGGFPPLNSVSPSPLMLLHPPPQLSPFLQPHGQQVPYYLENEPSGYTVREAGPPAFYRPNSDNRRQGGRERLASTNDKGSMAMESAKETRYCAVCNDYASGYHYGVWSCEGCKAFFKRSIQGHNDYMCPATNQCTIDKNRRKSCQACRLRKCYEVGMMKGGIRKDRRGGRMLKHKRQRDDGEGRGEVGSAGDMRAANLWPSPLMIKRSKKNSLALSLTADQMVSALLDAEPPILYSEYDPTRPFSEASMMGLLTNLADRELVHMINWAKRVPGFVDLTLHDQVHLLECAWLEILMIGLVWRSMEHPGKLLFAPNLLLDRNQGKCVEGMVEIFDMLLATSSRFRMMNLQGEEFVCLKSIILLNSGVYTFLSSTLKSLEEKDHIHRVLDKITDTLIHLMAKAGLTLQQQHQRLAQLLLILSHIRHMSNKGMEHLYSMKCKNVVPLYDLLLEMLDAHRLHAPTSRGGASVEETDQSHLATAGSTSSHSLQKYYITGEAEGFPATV

Ki [1]: 2480 nM
SMILES: CCC(=C(Cc1ccc(OCCN2CCOCC2)cc1)c1ccccc1)c1ccccc1

Kd [1]: 5000 nM
SMILES: O=C1c2cc(O)ccc2C2CC1c1ccc(O)cc1C2=O

IC50 [2, 3]: 1000 nM
SMILES: COC(=O)CCCC=C(c1cc(C)c(OC)c(C(=O)OC)c1)c1cc(C)c(OC)c(C(=O)OC)c1

IC50 ([2]; HIV-1 P, gene HIV-1 protease): 51 nM
SMILES: O=C1OC(CCc2ccccc2)(c2ccccc2)CC(O)=C1SCCc1ccccc1 (stereo unspecified)

Kd [1]: 2 nM
SMILES: CC1(C)CC(c2ccc(O)cc2)=C(c2ccc(O)cc2)CC1(C)C

IC50 ([2]; HIV-1 P, gene HIV-1 protease): 2220 nM
SMILES: CSCCC(NC(=O)C(CO)N(Cc1ccccc1)Cc1ccccc1)C(=O)NC(C)(C)C (stereo unspecified)

Kd [1]: 12 nM
SMILES: C[C@]12CCC3c4ccc(O)cc4CCC3C1C(O)CC2O (stereo partly specified)

IC50 ([2]; HIV-1 P, gene HIV-1 protease): 30000 nM
SMILES: CC(C)(C)OC(=O)NC(Cc1ccccc1)C(O)CC(Cc1ccccc1)C(=O)NCC1CCCCC1 (stereo unspecified)

IC50 [2, 3]: 250 nM
SMILES: CCc1c(Cc2ccccc2)n(CCOC)c(=O)[nH]c1=O

Ki [1]: 63.3 nM
SMILES: Oc1ccc(C2=C(c3ccccc3)c3ccc(O)cc3C2)cc1

IC50 [1]: 2000 nM
SMILES: Oc1ccc(-n2cc3ccccc3n2)cc1

IC50 ([2]; HIV-1 P, gene HIV-1 protease): 5000 nM
SMILES: Cc1c(O)cccc1C(=O)NC(CC(C)C)C(=O)N(Cc1ccccc1)N(CCO)C(=O)C1CCCN1C(=O)OC(C)(C)C (stereo unspecified)

Ki [1]: 1420 nM
SMILES: CCC1=C(c2ccc(O)cc2)C(C(=O)Nc2ccc(OCCN(C)C)cc2)c2cc(O)ccc21 (stereo unspecified)

IC50 [1]: 1400 nM
SMILES: CCC(=C(c1ccccc1)c1ccnn1OCCCN(C)C)c1ccccc1

Kd [1]: 4290 nM
SMILES: CC1c2ccc(O)cc2C2CC1c1cc(O)ccc1C2C (stereo unspecified)

IC50 [1]: 1800 nM
SMILES: CCNC(=O)CC1C[C@]2(C)C(O)CCC2C2CCc3cc(O)ccc3C12 (stereo partly specified)

IC50 [2, 3]: 440 nM
SMILES: O=C1Nc2ccc(Cl)cc2[C@@](C#CC2CC2)(C(F)(F)F)C1OCc1ccccc1 (stereo partly specified)

Kd [1]: 8300 nM
SMILES: CCCc1c(-c2ccc(O)cc2)nn(-c2ccc(O)cc2)c1C1CCCC1

IC50 [1]: 1330 nM
SMILES: Oc1ccc2nn(-c3ccccc3)c(Cl)c2c1

IC50 [2, 3]: 260 nM
SMILES: Cc1cc(C)cc(Sc2c(C)c(=O)[nH]c(=O)n2COCCO)c1

IC50 ([2]; HIV-1 P, gene HIV-1 protease): 2100 nM
SMILES: O=C1OC(c2ccccc2)CC(O)=C1SCCc1ccccc1 (stereo unspecified)

Kd [1]: 2500 nM
SMILES: CON=Cc1ccc(-c2ccccc2)c(-c2ccccc2)c1O

IC50 [2, 3]: 0.133 nM
SMILES: Cc1ccc2c(c1)[C@@](C#CC1CC1)(C(F)(F)F)OC(=O)N2

Kd [1]: 0.214 nM
SMILES: CCc1c(-c2ccc(O)cc2)oc(-c2ccc(O)cc2)c1-c1ccc(O)cc1

IC50 ([2]; HIV-1 P, gene HIV-1 protease): 12 nM
SMILES: CC(=O)NC(C(=O)NC(Cc1ccccc1)C(O)C(Cc1ccccc1)NC(=O)C(NC(C)=O)C(C)C)C(C)C (stereo unspecified)

Kd [1]: 16.1 nM
SMILES: C[C@]12CC(O)C3c4ccc(O)cc4CCC3C1CCC2O (stereo partly specified)

IC50 [2, 3]: 2130 nM
SMILES: CC1C(=O)Nc2ccc(Cl)cc2S(=O)(=O)N1Cc1cc(Cl)cc(Cl)c1 (stereo unspecified)

IC50 [2, 3]: 1900 nM
SMILES: COC(=O)c1c(Br)c(OC)c2c(c1-c1c3c(c(OC)c(Br)c1C(=O)OC)OCO3)OCO2

IC50 ([2]; HIV-1 P, gene HIV-1 protease): 2.5 nM
SMILES: CC(C)(C)OC(=O)NC(Cc1ccccc1)C(O)C[C@]1(Cc2ccccc2)NC=C(C2c3ccccc3C3NC(=O)OC32)C1=O (stereo partly specified)

IC50 [2, 3]: 5000 nM
SMILES: CCOC(=O)c1cccn1S(=O)(=O)c1cc(C)ccc1[N+](=O)[O-]

IC50 [1]: 10000 nM
SMILES: CCC(=C(c1ccccc1)c1ccnn1O)c1ccccc1

Ki [1]: 2.6 nM
SMILES: Oc1ccc2c3c(sc2c1)Cc1cccc(O)c1C3c1ccc(OCCN2CCCCC2)cc1 (stereo unspecified)

IC50 [1]: 0.63 nM
SMILES: CCc1nc(-c2ccc(O)cc2)nc(-c2ccc(O)cc2)c1-c1ccc(O)cc1

Kd [1]: 3000 nM
SMILES: COc1ccc2c(c1)CN(c1ccc(OCCN3CCCCC3)cc1)C1=C2CCc2cc(OC)ccc21

IC50 ([2]; HIV-1 P, gene HIV-1 protease): 2.2 nM
SMILES: Cc1cc(SC2=C(O)CC(CCc3ccc(O)cc3)(C(C)C)OC2=O)c(C(C)(C)C)cc1OS(C)(=O)=O (stereo unspecified)

IC50 ([2]; HIV-1 P, gene HIV-1 protease): 3100 nM
SMILES: O=c1oc(-c2ccccc2)cc(O)c1Sc1ccccc1

IC50 [2, 3]: 3000 nM
SMILES: CCCCCCCCOC(=O)c1cc2c([nH]c3ccccc32)c(-c2ccc3c(n2)C(=O)C(NC(C)=O)=CC3=O)n1

Kd [1]: 15 nM
SMILES: CCC1c2ccc(O)cc2C(C)C1c1ccc(O)cc1 (stereo unspecified)

SMILES: C=C[C@]12CCC(O)CC1=CCC1C3CCC(O)[C@@]3(C)CCC12 (stereo partly specified)
IC50 [1]: 2240 nM

IC50 [1]: 300 nM
SMILES: CCC(=C(c1ccc(O)cc1)c1ccc(OCCN(C)CCON=Cc2ccc(O)c(C(N)=O)c2)cc1)c1ccccc1

IC50 ([2]; HIV-1 P, gene HIV-1 protease): 0.69 nM
SMILES: O=C(NC1c2ccccc2CC1O)C(Cc1ccccc1)CC(O)CC(Cc1ccccc1)C(=O)NC1c2ccccc2CC1O (stereo unspecified)

IC50 ([2]; HIV-1 P, gene HIV-1 protease): 1100 nM
SMILES: CC(C)(C)NC(=O)c1ccccc1CCC(O)Cc1ccc2ccccc2c1C(=O)NC(C)(C)C (stereo unspecified)

IC50 [2, 3]: 249 nM
SMILES: CC1O[C@](C#CC2CC2)(C(F)(F)F)c2cc(Cl)ccc2NC1=O (stereo partly specified)

Ki [1]: 2000 nM
SMILES: CC(C)c1cc(C(C)C)n2nc(-c3ccc(O)cc3)c(-c3cccc(O)c3)c2n1

IC50 [2, 3]: 31 nM
SMILES: O=C1Nc2ccc(Cl)cc2[C@@](C#CC2CC2)(C(F)(F)F)N1

IC50 [2, 3]: 4.4 nM
SMILES: CCOCn1c(Sc2cc(C)cc(C)c2)c(CC)c(=O)[nH]c1=S

IC50 [1]: 20.8 nM
SMILES: CCc1nc(-c2ccc(O)cc2)c(-c2ccc(O)cc2)nc1CC

Ki [1]: 21.4 nM
SMILES: Oc1ccc2c(c1)CCC21C=C(c2ccc(OCCN3CCCC3)cc2)c2cc(O)ccc21 (stereo unspecified)

Ki [1]: 2000 nM
SMILES: Oc1ccc(-c2c(-c3ccccc3)nn3cccnc23)cc1

IC50 ([2]; HIV-1 P, gene HIV-1 protease): 12 nM
SMILES: CC(C)(C)OC(=O)NC(Cc1ccccc1)C(O)C(O)C(Cc1ccccc1)NC(=O)OC(C)(C)C (stereo unspecified)

IC50 [2, 3]: 3200 nM
SMILES: CCCc1cc(=O)oc2c3c(c4c(c12)OC(C)(C)C=C4)OC(CC)C(C)C3O (stereo unspecified)

IC50 [2, 3]: 6.8 nM
SMILES: CC(C)c1c(Sc2ccccc2)n(COCc2ccccc2)c(=S)[nH]c1=O

IC50 [1]: 2.38 nM
SMILES: CCc1nc(-c2ccc(O)cc2)c(-c2ccc(O)cc2)nc1-c1ccc(O)cc1

IC50 [2, 3]: 2000 nM
SMILES: O=C1c2ccccc2C(=O)N1CCOC(=S)N(C(=O)c1cccnc1Cl)c1ccc(Cl)cc1

IC50 [2, 3]: 100 nM
SMILES: Cc1c(Sc2ccccc2)n(CC=Cc2cccnc2)c(=O)[nH]c1=O

IC50 [1]: 2800 nM
SMILES: CCC(=C(c1ccccc1)c1cnn(OCCN(C)C)c1)c1ccccc1

IC50 ([2]; HIV-1 P, gene HIV-1 protease): 365 nM
SMILES: CSCCC(NC(=O)C(CCO)N(Cc1ccccc1)C(=O)C(CC(C)C)NC(=O)OCc1ccccc1)C(=O)NC(C)(C)C (stereo unspecified)

IC50 [1]: 10000 nM
SMILES: CCC(=C(c1ccccc1)c1ccnn1OCc1ccccc1)c1ccccc1

IC50 [1]: 160 nM
SMILES: O=C(c1ccc(OCCN2CCCCC2)cc1)c1c(-c2ccc(O)cc2)sc2ccc(O)cc12

IC50 [1]: 10000 nM
SMILES: CCC(=C(c1ccccc1)c1ccccc1)c1cnn(OCCCN(C)C)c1

IC50 [2, 3]: 82000 nM
SMILES: Cc1c(Sc2cccc(O)c2)n(COCCO)c(=O)[nH]c1=O

Kd [1]: 1.67 nM
SMILES: CCCC1C(c2ccc(O)cc2)=C(CC)c2ccc(O)cc21 (stereo unspecified)

IC50 ([2]; HIV-1 P, gene HIV-1 protease): 2300 nM
SMILES: O=C1OC2(CCCc3ccccc32)CC(O)=C1SCc1ccccc1 (stereo unspecified)

IC50 [1]: 1600 nM
SMILES: C[C@]12CCC3c4ccc(O)cc4CCC3C1CC[C@@]2(O)CCNC(=O)CBr (stereo partly specified)

IC50 [1]: 2700 nM
SMILES: CCNC1=C(c2ccc(O)cc2)C(=O)c2cc(O)cc(O)c21

Kd [1]: 0.83 nM
SMILES: CCc1c(-c2ccc(O)cc2)nn(-c2ccc(O)cc2)c1-c1ccc(O)cc1

IC50 [1]: 0.11 nM
SMILES: CCCc1nc(-c2ccc(O)cc2)c(CCC)nc1-c1ccc(O)cc1

Ki [1]: 2850 nM
SMILES: O=C(O)c1ccc(C2=C(c3ccc(O)cc3)Cc3cc(O)ccc32)cc1

IC50 [1]: 2000 nM
SMILES: Oc1ccc(-n2cc3ccc(O)c(Br)c3n2)cc1

Ki [1]: 25.3 nM
SMILES: Oc1ccc2c(c1)CCC21C=C(c2ccc(OCCN3CCCCC3)cc2)c2cc(O)ccc21 (stereo unspecified)

IC50 [1]: 200 nM
SMILES: CCC(=C(c1ccccc1)c1cnn(OCCCN(C)C)c1)c1cccs1

Ki [1]: 2000 nM
SMILES: Cc1nc2c(-c3ccccc3)c(-c3ccc(O)cc3)nn2c(C)c1C

Ki [1]: 2000 nM
SMILES: Oc1ccc(-c2c(-c3cccc(O)c3)nn3c(C(F)(F)F)cc(C(F)(F)F)nc23)cc1

IC50 [1]: 2000 nM
SMILES: COc1ccc2c(C(=O)c3ccc(OCCN4CCCCC4)cc3)c(-c3ccc(O)cc3)sc2c1

Kd [1]: 3000 nM
SMILES: O=c1c2cc(O)ccc2c2ccc3cc(O)ccc3c2n1-c1ccc(OCCN2CCCCC2)cc1

IC50 [1]: 2.08 nM
SMILES: CCc1c(Cc2ccccc2)nc(-c2ccc(O)cc2)nc1-c1ccc(O)cc1
